Experimental data from patent publication US10071975B2, “Macrocyclic amidinourea derivatives, methods of preparation and uses thereof as chitinase inhibitors” (CYGNET BIOSCIENCES B.V., priority 2013, dated 2018).
Converted amounts (≈) assume the structure as drawn. Like-named read-outs stand apart in the source and are kept apart here.

Key:
[1] = system: C. tropicalis; test: Antimicrobial susceptibility testing (microdilution MIC90), C. tropicalis strains; type: cell-based; conditions: Candida tropicalis; C. tropicalis (11 strains tested); 24 h
Protocol: (§1) Sterile plastic microtitration plates containing flat-bottomed wells were used. The plates contained serial dilution of the antifungal agents with a volume of assay medium of 100 μL/well. Two drug-free medium wells were used as sterility and growth controls. The trays were inoculated with 100 μL/well of the final inoculum, with the exception of sterility control wells. […] The microtitration plates were incubated at 37° C. for 24 h. The minimal inhibitory concentrations (MICs) were determined at 24 h both visually and spectrophotometrically measuring the turbidity at 595 nm with a Varian model 1475 spectrophotometer. Results of biological tests are shown in Table 2, biological data are reported as MIC90 that is the minimum concentration required to inhibit the growth of at least the 90% of the strains tested for each species.

[2] = system: C. glabrata fluconazole resistant strains; test: microbe, parasite or virus in culture; type: cell-based, Candida glabrata; conditions: Nakaseomyces glabratus, 24 h
[3] = system: C. albicans; test: Antimicrobial susceptibility testing (microdilution MIC90), C. albicans strains; type: cell-based; conditions: Candida albicans; C. albicans (22 strains tested); 24 h, visually and spectrophotometrically
Protocol: as §1

[4] = system: C. krusei; test: Antimicrobial susceptibility testing (microdilution MIC90), C. krusei strains; type: cell-based, Candida krusei; conditions: Pichia kudriavzevii, 24 h
Protocol: as §1

[5] = system: C. parapsilosis; test: Antimicrobial susceptibility testing (microdilution MIC90), C. parapsilosis strains; type: cell-based, Candida parapsilosis; conditions: Lodderomyces parapsilosis; C. parapsilosis (24 strains tested); 24 h
Protocol: as §1

[6] = system: C. albicans fluconazole resistant strains; test: microbe, parasite or virus in culture; type: cell-based; conditions: Candida albicans, 24 h
[7] = system: C. kefyr; test: Antimicrobial susceptibility testing (microdilution MIC90), C. kefyr strains; type: cell-based, Candida kefyr; conditions: Kluyveromyces marxianus; C. kefyr (10 strains tested); 24 h
Protocol: as §1

[8] = system: C. glabrata; test: Antimicrobial susceptibility testing (microdilution MIC90), C. glabrata strains; type: cell-based, Candida glabrata; conditions: Nakaseomyces glabratus; C. glabrata (26 strains tested); 24 h
Protocol: as §1

[9] = system: C. guilliermondii; test: Antimicrobial susceptibility testing (microdilution MIC90), C. guilliermondii strains; type: cell-based, Candida guilliermondii; conditions: Meyerozyma guilliermondii; C. guilliermondii (10 strains tested); 24 h
Protocol: as §1

[10] = biological target: chitinase enzyme extracted from Trichoderma viride; test: Chitinase inhibition assay (NP-GlcNAc substrate); type: biochemical
Protocol: Chitinase inhibition assays were conducted against an example of the GH18 family of chitinases, i.e the chitinase enzyme extracted from Trichoderma viride. This enzyme has an high degree of identity compared to chitinase 4 of Candida albicans, and is commercially available from Sigma-Aldrich (catalogue ID: C8241).
The substrate used was the NP-GlcNAc (Sigma-Aldrich, catalogue ID: N9376) dissolved in MES 50 mM at pH6.0; the final concentration was 250 μM. The enzyme was resuspended at 0.11 mg/ml in MES 50 mM at pH 6.0, with a final concentration for the assay of 73 nM diluting with MES 50 mM and BSA 20 μg/ml at pH 6.0. A stock solution of the inhibitors was prepared at 50 mM in DMSO 100%.
The mixture with the inhibitor at various concentrations and the enzyme was prepared directly into the reading plate and left to incubate at room temperature for 20 minutes or three hours. At the end of the incubation times, the substrate was added and the reading was conducted by recording the values up to a maximum time of 10 minutes. The substrate concentration was measured by reading UV absorption at 300 nm (εM^300: 11100), while, the product of hydrolysis were measured at 400 nm (ΔεM^400: 2120). Both IC50 and Ki can be calculated.

[11] = strain DSY284, ERG11 Mutation, mean of three measurements
[12] = strain DSY289, ERG11 Mutation (2)
[13] = strain DSY291, ERG11 Mutation (2)
[14] = strain DSY292, ERG11 Mutation (3)
[15] = strain DSY751, ↑MDR1, ERG11 Mutation
[16] = C. krusei (13 strains tested), read-out: MIC90
[17] = Enz.-inhib. incubation time 20 min
[18] = Enz.-inhib. incubation time 3 h

OC(Cn1cncn1)(Cn1cncn1)c1ccc(F)cc1F [F, Fluconazole, reference compound]
MIC90 [1]: 2 µg/mL (≈ 6.53 µM)
MIC ([2]; strain DSY530, ↑CDR1): 64 µg/mL (≈ 209 µM)
MIC ([2]; strain DSY754, ↑CDR1): 64 µg/mL (≈ 209 µM)
MIC ([2]; strain DSY756, ↑CDR1-CDR2-SNQ2): 128 µg/mL (≈ 418 µM)
MIC ([2]; strain DSY2254, ↑CDR1-CDR2): 128 µg/mL (≈ 418 µM)
MIC ([2]; strain DSY2271, ↑CDR2): 64 µg/mL (≈ 209 µM)
MIC90 [3]: 2 µg/mL (≈ 6.53 µM)
MIC90 [4]: 256 µg/mL (≈ 836 µM)
MIC90 [5]: 0.5 µg/mL (≈ 1.63 µM)
MIC [6, 11]: 256 µg/mL (≈ 836 µM)
MIC [6, 12]: 256 µg/mL (≈ 836 µM)
MIC [6, 13]: 2 µg/mL (≈ 6.53 µM)
MIC [6, 14]: 64 µg/mL (≈ 209 µM)
MIC ([6]; strain DSY296, ERG11 Mutation): 128 µg/mL (≈ 418 µM)
MIC ([6]; strain DSY348, ERG11 Mutation): 32 µg/mL (≈ 104 µM)
MIC ([6]; strain DSY732, ↑CDR1-CDR2): 16 µg/mL (≈ 52.2 µM)
MIC ([6]; strain DSY735, ↑CDR1-CDR2): 64 µg/mL (≈ 209 µM)
MIC ([6]; strain DSY750, ↑MDR1): 2 µg/mL (≈ 6.53 µM)
MIC [6, 15]: 256 µg/mL (≈ 836 µM)
MIC ([6]; strain DSY775, ERG11 Mutation): 128 µg/mL (≈ 418 µM)
MIC ([6]; strain DSY2323, ↑CDR2-MDR1): 32 µg/mL (≈ 104 µM)
MIC90 [7]: 1 µg/mL (≈ 3.27 µM)
MIC90 [8]: 16 µg/mL (≈ 52.2 µM)
MIC90 [9]: 4 µg/mL (≈ 13.1 µM)

C/C=C/CNC(=N)NCCCCCCCCN1CCCc2ccccc2COc2ccccc2CNC(=N)NC1=O [Example 22, 1-[(2E)-but-2-en-1-yl]-3-(8-{16-imino-14-oxo-2-oxa-13,15,17-triazatricyclo[17.4.0.0^4,9]tricosa-1(19),4(9),5,7,20,22-hexaen-13-yl}octyl)guanidine]
MIC90 [1]: 128 µg/mL (≈ 228 µM)
MIC90 [3]: 64 µg/mL (≈ 114 µM)
MIC90 [4, 16]: 256 µg/mL (≈ 456 µM)
MIC90 [5]: 64 µg/mL (≈ 114 µM)
MIC90 [7]: 128 µg/mL (≈ 228 µM)
MIC90 [8]: 128 µg/mL (≈ 228 µM)
MIC90 [9]: 64 µg/mL (≈ 114 µM)

C/C=C/CNC(=N)NCCCCCCCCN1CCCCOc2ccccc2CNC(=N)NC1=O [Example 16, 1-[(E)-but-2-enyl]-3-[8-(4-imino-6-oxo-12-oxa-3,5,7-triazabicyclo[11.4.0]heptadeca-1(13),14,16-trien-7-yl)octyl]guanidine]
MIC90 [1]: 8 µg/mL (≈ 16.5 µM)
MIC ([2]; strain DSY530, ↑CDR1): 64 µg/mL (≈ 132 µM)
MIC ([2]; strain DSY754, ↑CDR1): 64 µg/mL (≈ 132 µM)
MIC ([2]; strain DSY756, ↑CDR1-CDR2-SNQ2): 64 µg/mL (≈ 132 µM)
MIC ([2]; strain DSY2254, ↑CDR1-CDR2): 64 µg/mL (≈ 132 µM)
MIC ([2]; strain DSY2271, ↑CDR2): 64 µg/mL (≈ 132 µM)
MIC90 [3]: 16 µg/mL (≈ 32.9 µM)
MIC90 [4, 16]: 32 µg/mL (≈ 65.9 µM)
MIC90 [5]: 8 µg/mL (≈ 16.5 µM)
MIC [6, 11]: 16 µg/mL (≈ 32.9 µM)
MIC [6, 12]: 8 µg/mL (≈ 16.5 µM)
MIC [6, 13]: 8 µg/mL (≈ 16.5 µM)
MIC [6, 14]: 16 µg/mL (≈ 32.9 µM)
MIC ([6]; strain DSY296, ERG11 Mutation): 16 µg/mL (≈ 32.9 µM)
MIC ([6]; strain DSY348, ERG11 Mutation): 8 µg/mL (≈ 16.5 µM)
MIC ([6]; strain DSY732, ↑CDR1-CDR2): 8 µg/mL (≈ 16.5 µM)
MIC ([6]; strain DSY735, ↑CDR1-CDR2): 8 µg/mL (≈ 16.5 µM)
MIC ([6]; strain DSY750, ↑MDR1): 16 µg/mL (≈ 32.9 µM)
MIC [6, 15]: 16 µg/mL (≈ 32.9 µM)
MIC ([6]; strain DSY775, ERG11 Mutation): 16 µg/mL (≈ 32.9 µM)
MIC ([6]; strain DSY2323, ↑CDR2-MDR1): 8 µg/mL (≈ 16.5 µM)
MIC90 [7]: 4 µg/mL (≈ 8.24 µM)
MIC90 [8]: 64 µg/mL (≈ 132 µM)
MIC90 [9]: 16 µg/mL (≈ 32.9 µM)

C/C=C/CNC(=N)NCCCCCCCCN1CCCc2cccc(c2)COc2ccccc2CNC(=N)NC1=O [Example 23, 1-[(2E)-but-2-en-1-yl]-3-(8-{12-imino-14-oxo-3-oxa-11,13,15-triazatricyclo[17.3.1.0^4,9]tricosa-1(23),4(9),5,7,19,21-hexaen-15-yl}octyl)guanidine]
MIC90 [1]: 256 µg/mL (≈ 456 µM)
MIC90 [3]: 256 µg/mL (≈ 456 µM)
MIC90 [4, 16]: 256 µg/mL (≈ 456 µM)
MIC90 [5]: 256 µg/mL (≈ 456 µM)
MIC90 [7]: 256 µg/mL (≈ 456 µM)
MIC90 [8]: 128 µg/mL (≈ 228 µM)
MIC90 [9]: 256 µg/mL (≈ 456 µM)

C#CCNC(=N)NCCCCCCN1CCCCCCCCNC(=N)NC1=O [Compound 39, 1-[6-(4-imino-2-oxo-1,3,5-triazacyclotridec-1-yl)hexyl]-3-prop-2-ynylguanidine]
IC50 [10, 17]: 170 µM
Ki [10, 17]: 55 µM
IC50 [10, 18]: 97 µM
Ki [10, 18]: 31.3 µM

C/C=C/CNC(=N)NCCCCCCCCN1CCCCCCOC(=O)CCNC(=N)NC1=O [Example 20, 1-[(E)-but-2-enyl]-3-[8-(6-imino-2,8-dioxo-1-oxa-5,7,9-triazacyclopentadec-9-yl)octyl]guanidine]
MIC90 [1]: 16 µg/mL (≈ 33.4 µM)
MIC90 [3]: 16 µg/mL (≈ 33.4 µM)
MIC90 [4, 16]: 32 µg/mL (≈ 66.7 µM)
MIC90 [5]: 8 µg/mL (≈ 16.7 µM)
MIC90 [7]: 16 µg/mL (≈ 33.4 µM)
MIC90 [8]: 32 µg/mL (≈ 66.7 µM)
MIC90 [9]: 8 µg/mL (≈ 16.7 µM)

C/C=C/CNC(=N)NCCCCCCCCN1CCCCCCCCNC(=N)NC1=O [Compound 35, 1-[(E)-but-2-enyl]-3-[8-(4-imino-2-oxo-1,3,5-triazacyclotridec-1-yl)octyl]guanidine]
IC50 [10, 17]: 185 µM
Ki [10, 17]: 59.6 µM
IC50 [10, 18]: 157 µM
Ki [10, 18]: 50.8 µM
